Measured values taken from patent US6720306B2, “Tetrapartate prodrugs” (priority 1997, dated 2004).

System: human ovarian carcinoma (A2780)
Assay: Efficacy of PEG-leu-doxorubicin analogs against subcutaneous human ovarian carcinoma (A2780) xenograft in nude mice
Type: in vivo
Settings: intravenous Qd7 × 3, 30 mg/kg/dose
Description: The efficacy of PEG-leu-doxorubicin analogs against a subcutaneous human ovarian carcinoma (A2780) injected into nude mice was determined as follows.
Following at least one week of acclimation, tumors were established in nude mice by injecting 1×10^6 […] harvested A2780 ovarian carcinoma cells in a single subcutaneous site, on the left axillary flank region of each animal. The tumor injection site was observed twice weekly and measured once palpable. The tumor volume for each mouse was determined by measuring two dimensions with calipers and calculated using the formula: tumor volume=(length×width^2)/2). When tumors reached the average volume of approximately 80 mm^3, the mice were divided into their respective experimental groups, which consists of vehicle (20 m M sodium phosphate in 0.6% NaCl) controls, Leu-Doxorubicin, compound 1 of Example 1, compound 10 of Example 4, and compound 12 of Example 5). The mice were sorted to evenly distribute tumor size, grouped into 6 mice/cage, and ear punched for permanent identification. Drugs were dosed intravenously via the tail vein once per week for three weeks (Qd7×3). Mouse weight and tumor sizes were measured at the beginning of study and twice weekly through week 5.
The overall growth of tumors was calculated as the mean tumor volume at one week following the end of the treatment. A percent treatment over control (T/C) value was also calculated when the control group's median tumor size reached approximately 800-1100 mm^3 and again at one week following treatment. The T/C value in percent is a non-quantitative indication of anti-tumor effectiveness.

What does the source list for `COc1cccc2c1C(=O)c1c(O)c3c(c(O)c1C2=O)C[C@@](O)(C(=O)CO)C[C@@H]3O[C@H]1C[C@H](NC(=O)[C@@H](N)CC(C)C)[C@H](O)[C@H](C)O1` [Leu-Dox, Leucine-doxorubicin]?
Tumor Volume (mean ± sem) Day 21 (A2780 xenograft in nude mice, established tumors ~80 mm^3, n = 6/group, day 21): 659 ± 173 mm^3; T/C (%) At Day 21 (median tumor volume treatment vs control one week after final dosage (day 21)): 19.7%; T/C (%) At 1000 mm^3 (median tumor volume treatment vs control when control median reached approximately 1000 mm^3): 26.3%
